The assay deals with aggrecan degradation induced with IL-1α. The assay can be described thus: Inhibition of aggrecan degradation (aggrecanolysis) induced with IL-1α in LTC chondrocyte culture, Western Blot with anti-G1 antibody. The note with it: for inhibition of aggrecanolysis induced by IL-1α vs. the control: LTC rat chondrosarcoma chondrocyte culture, 10 ng/mL IL-1α, 4 days, control = culture with only IL-1α. The class given is cell-based, rat. As to the method:
The study of the inhibition of aggrecan degradation was performed on a chondrocyte culture from a rat chondrosarcoma cell line. This cell line, called LTC, deposits an extracellular matrix similar to the cartilage's, expresses all the components of the aggrecanase system, generates the fragmentation of aggrecan by said enzymes, and responds to known aggrecanolysis inhibitors such as glucosamine hydrochloride. The assays were performed on chondrocyte cultures from a rat chondrosarcoma cell line called LTC. The LTC cells were kept in a monolayer culture in a Gibco DMEM medium (Dulbecco's Modification of Eagle's Medium) (containing 4.5 g/L of glucose) supplemented with sodium bicarbonate (3.7 g/L), glutamine (2 mM), ascorbic acid (50 mg/L), gentamicin (50 mg/L), and bovine fetal serum Hyalone (10%), at pH 7.4. The confluent LTC cell cultures were trypsinised and 40,000 cells per 0.5 mL of culture were seeded in 48-well plates. They were maintained for 5 days, during which time they deposited 15-30 μg of glycosaminoglycans (GAG) in each well. The medium was separated, the cell membranes were washed by adding 5×1 mL of a catabolic medium {DMEM+4.5 g/L glucose supplemented with sodium bicarbonate (3.7 g/L), glutamine (2 mM), and 10 ng/mL of IL-1α (interleukin-1α) at pH 7.4}. Subsequently, the cultures were kept in 200 μL of this medium, supplemented or not with glucosamine hydrogen malate, for 4 days, without changing the medium, at 37° C. In order to verify the effect of glucosamine hydrogen malate on aggrecan degradation, a Western Blot was performed. For the Western Blot, 20 μL of 50 mM tris-acetate at pH 7.3 were added to each well. The cultures (medium+cell membrane) were deglycosylated with 50 mU of chondroitinase ABC at 37° C. for 4 hours. Subsequently, the samples in each well were recovered and centrifuged at 1,460 g for 10 minutes. 25 μL-fractions of the supernatant were separated by electrophoresis (gel gradient 8-12% SDS PAGE) and analysed by means of a Western Blot using anti-G1 antibody. The antiserum was used at a 1:5,000 dilution and the peroxidase-conjugated goat anti-(rabbit IgG) was detected by means of the Amersham ECL Kit. The exposure time ranged between 5 seconds and 5 minutes in order to obtain quantifiable images. The Western Blots were scanned and the bands were quantified by means of the SCION image analysis software. In relation to the described procedure, see: J. D. Sandy et al., Biochem. J. 335, 59-66 (1998).
On the technique in general: Immunoblotting shows a protein as a band on a membrane.

The structures appear in SMILES notation.

With `N[C@H]1C(O)O[C@H](CO)[C@@H](O)[C@@H]1O.O=C(O)CC(O)C(=O)O` (some centres unmarked) [glucosamine hydrogen malate, Glucosamine Hydrogen Malate], the “inhibition of aggrecanolysis induced by IL-1α vs. the control” value is listed as 95±17.5% (1 mM) and 32±3.7% (10 mM). The “effectiveness in inhibiting aggrecanolysis compared with glucosamine hydrochloride (FIG. 1)” value (10 mM, LTC culture with IL-1α) is on record as “significantly more effective than glucosamine hydrochloride”.
On to `Cl.N[C@H]1C(O)O[C@H](CO)[C@@H](O)[C@@H]1O` (some centres unmarked) [glucosamine hydrochloride, reference compound], for which the “inhibition of aggrecanolysis induced by IL-1α vs. the control” value was determined as 83±4.9% (1 mM) and 53±5.8% (10 mM).

For the origin of these results see US7943598B2, “Use of organic glucosamine salts” (Bioiberica, S.A., priority 2004, dated 2011).
